Reference: patent publication US20190185544A1, “COMPOSITIONS AND METHODS OF MODULATING ABETA PROTEIN” (University of South Florida, priority 2016, published 2019)

Legend:
[1] = tested on: N-terminal APP (sAPPα, sAPPβ, APP31/60); assay: In vitro co-immunoprecipitation with recombinant sAPPα/β and APP31/60; assay type: binding, human; conditions: sAPPα 100 nM, apoE4 100 nM, 6KApoEp or 6K at 5 or 10 μM, 1 h, 37° C.; P<0.05 at 10 μM
N-terminus of APP = assay: Co-immunoprecipitation and co-localisation with N-terminal APP in CHO/APPwt cells; assay type: binding, human; conditions: peptides 10 μM or apoE 10 μg/mL, 2 h; IP with 6H3B5 or pN-APP
Protocol: Total secreted APP (t-sAPP) and full-length APP (f-APP) in total (inputs), immunoprecipitates and immunodepleted media and lysates were determined by WB using 22C11 or anti-C-terminal APP751/70 antibody (pC-APP), respectively (FIG. 20A left panels and FIG. 20B, top panels). Alternatively, conditioned media and cell lysates were IP with anti-N-terminal APP41/66 antibody (pN-APP) and apoE, or 6KApoEp and ApoEp, was determined using anti-human apoE antibody (ApoE1H4; FIG. 20A, right panels) or 6H3B5, respectively (FIG. 20B, bottom panels). In addition, CHO/APPwt cells were plated at 8 well-chambers at 1×10^5/well for 24 h, treated with 6K, ApoEp or 6KApoEp at 10 μM for 2 h, fixed in 4% paraformaldehyde and stained with 6H3B5 and pN-APP antibodies (FIG. 20C). Alexa Fluor 488 goat anti-mouse IgG (green) was used to detect ApoEp and 6KApoEp, while Alexa Fluor 594 donkey anti-rabbit IgG (red) was used to detect N-terminal APP. DAPI co-staining was done to show nuclear DNA. Homogenates prepared from three TgAPPwt mice (2 female/1 male), two AD patients (AD1[…], AD2[…]) and two normal age-matched control cortices (Ctrl1[…], Ctrl2[…]) were also IP with 6H3B5 or pN-APP and t-APP and apoE were determined using 6E10 and mApoE, respectively (FIGS. 20D-20E).
Total secreted APP in conditioned media and full length APP in cell lysates were then determined by WB using anti-N-terminal (22C11) and anti-C-terminal APP antibodies (pC-APP), respectively. […] In addition, ApoEp and 6KApoEp colocalized with N-terminal APP in cultured CHO/APPwt cells as determined by immunofluorescence staining with 6H3B5 and pN-APP antibodies (FIG. 20C), respectively, confirming that N-terminal APP physically associates with apoE in cell culture. […]
WB analyses were performed as previously described^43,44. […] For all other proteins detected by WB, 10% tris-SDS gels were used. Densitometry analysis was performed as previously described using a FluorS Multiimager with Quantity One™ software 43. […]

N-terminal APP (sAPPα, sAPPβ, APP31/60), sequence (P05067 18-189 limits assumed): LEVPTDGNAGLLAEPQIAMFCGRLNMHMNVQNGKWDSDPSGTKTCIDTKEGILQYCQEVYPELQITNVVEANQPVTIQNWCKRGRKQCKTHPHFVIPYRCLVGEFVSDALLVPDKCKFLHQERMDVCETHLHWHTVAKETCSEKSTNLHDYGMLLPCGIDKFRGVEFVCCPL
N-terminus of APP, sequence (P05067 18-189 limits assumed): as above

6K: 6 lysines control peptide (KKKKKK) [reference compound]
co-immunoprecipitation of sAPPα with apoE4 (apoE4/sAPPα band density ratio) [1]: but not 6K, reduced co-immunoprecipitation of sAPPα with apoE4
immunoprecipitation and localization with N-terminal APP (N-terminus of APP): but not 6K, immunoprecipitated and localized with N-terminal APP
